{
  "source": "patent US8217001B2",
  "about": "“Modification of feeding behavior” (Imperial Innovations Limited, priority 2001, dated 2012)",
  "key": {"[1]": {"test_system": "GABAergic IPSCs onto POMC neurons", "assay": "GABAergic inhibitory postsynaptic currents (IPSCs) recorded in POMC neurons of hypothalamic slices", "format": "cell-based, mouse"}, "[2]": {"test_system": "NPY and α-MSH release from hypothalamic explants", "assay": "Neuropeptide release from hypothalamic explants (RIA)", "format": "cell-based, rat", "conditions": "50 nM", "experimental": "Hypothalamic explants: Male Wistar rats were killed by decapitation and the whole brain immediately removed, mounted with the ventral surface uppermost and placed in a vibrating microtome (Biorad, Microfield Scientific Ltd., Devon, UK). A 1.7 mm slice was taken from the base of the brain to include the PVN and the ARC and immediately transferred to 1 ml of artificial CSF (aCSF) (Kim et al., J. Clin. Invest. 105, 1005-11, 2000) equilibrated with 95% O2 and 5% CO2 and maintained at 37° C. After an initial 2-hour equilibration period, with aCSF replaced every 60 minutes, the hypothalami were then incubated for 45 minutes in 600 μl aCSF (basal period) before being exposed to the Y2A […] in 600 μl aCSF. Finally, the viability of the tissue was verified by a 45 minute exposure to 56 mM KCL; isotonicity was maintained by substituting K^+ for Na^+."}, "POMC neurons": {"test_system": "POMC neurons", "assay": "Whole cell recordings of membrane potential, currents and action potentials in EGFP-labeled POMC neurons of hypothalamic (ARC) slices", "format": "cell-based, mouse"}, "[3]": {"assay": "Food intake after injection into the paraventricular nucleus (PVN) of fasted rats", "format": "in vivo, rat", "experimental": "(§1) Animals: Male Wistar rats (200-250 g), 7-8 weeks old (Charles River Laboratories, United Kingdom) were maintained under controlled temperature (21-23° C.) and light conditions (lights on 07:00-19:00) with ad libitum access to water and food (RM1 diet; SDS Ltd., Witham, United Kingdom) except where stated. Arcuate and paraventricular nuclei cannulations and injections were performed as previously described (Glaum et al., Mol. Pharmacol. 50, 230-5, 1996; Lee et al., J. Physiol (Lond) 515, 439-52; 1999; Shiraishi et al., Nutrition 15, 576-9, 1999). Correct intranuclear cannula placement was confirmed histologically at the end of each study period (Glaum et al., Mol. Pharmacol. 50, 230-5, 1996; Lee et al., J. Physiol (Lond) 515, 439-52, 1999; Shiraishi et al., Nutrition 15, 576-9, 1999). All animal procedures were approved under the British Home Office Animals (Scientific Procedures) Act, 1986. All injection studies on fasting animals were performed in the early light-phase (0800-0900). All dark-phase feeding studies injections were performed just prior to lights off."}, "[4]": {"assay": "Food intake after injection into the arcuate nucleus of fasted rats", "format": "in vivo, rat", "conditions": "rats fasted 24 hours", "experimental": "as §1, with “Arcuate” for “Animals: Male Wistar rats (200-250 g), 7-8 weeks old (Charles River Laboratories, United Kingdom) were maintained under controlled temperature (21-23° C.) and light conditions (lights on 07:00-19:00) with ad libitum access to water and food (RM1 diet; SDS Ltd., Witham, United Kingdom) except where stated. Arcuate”"}, "NPY Y2 receptor": {"molecular_target": "T1, NPY Y2 receptor (Homo sapiens, UniProt P49146)", "T1 construct": "host or cells: unnamed cell line expressing the receptor", "T1 sequence (P49146 1-381)": "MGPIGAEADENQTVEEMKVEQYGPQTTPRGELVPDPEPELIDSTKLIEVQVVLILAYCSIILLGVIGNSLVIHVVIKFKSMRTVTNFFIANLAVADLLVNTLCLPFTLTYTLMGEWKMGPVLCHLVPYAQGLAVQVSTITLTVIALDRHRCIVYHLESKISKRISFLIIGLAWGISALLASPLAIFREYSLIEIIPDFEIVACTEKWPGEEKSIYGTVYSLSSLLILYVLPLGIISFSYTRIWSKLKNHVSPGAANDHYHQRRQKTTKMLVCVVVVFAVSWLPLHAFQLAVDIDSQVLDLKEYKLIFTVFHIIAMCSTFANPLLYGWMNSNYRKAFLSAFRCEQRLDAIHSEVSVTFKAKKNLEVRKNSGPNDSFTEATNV", "assay": "Receptor-binding studies on cell lines expressing NPY Y2 receptor"}, "NPY Y1 receptor": {"molecular_target": "NPY Y1 receptor (Homo sapiens, UniProt P25929)", "sequence (P25929 whole entry)": "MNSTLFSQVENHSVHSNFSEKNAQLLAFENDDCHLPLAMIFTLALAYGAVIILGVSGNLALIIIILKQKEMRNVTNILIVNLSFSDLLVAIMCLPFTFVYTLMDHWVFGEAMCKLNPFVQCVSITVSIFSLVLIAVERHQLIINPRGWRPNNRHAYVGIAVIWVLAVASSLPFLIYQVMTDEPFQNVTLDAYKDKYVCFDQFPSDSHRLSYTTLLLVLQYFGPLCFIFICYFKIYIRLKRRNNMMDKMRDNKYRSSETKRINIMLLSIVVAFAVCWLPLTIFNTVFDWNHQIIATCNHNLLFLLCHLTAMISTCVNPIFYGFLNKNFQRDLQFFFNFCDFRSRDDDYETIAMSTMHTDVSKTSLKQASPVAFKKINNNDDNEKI", "assay": "biochemical", "format": "binding"}, "NPY Y5 receptor": {"molecular_target": "T2, NPY Y5 receptor (Homo sapiens, UniProt Q15761)", "T2 construct": "host or cells: unnamed cell line expressing the receptor", "T2 sequence (Q15761 1-445)": "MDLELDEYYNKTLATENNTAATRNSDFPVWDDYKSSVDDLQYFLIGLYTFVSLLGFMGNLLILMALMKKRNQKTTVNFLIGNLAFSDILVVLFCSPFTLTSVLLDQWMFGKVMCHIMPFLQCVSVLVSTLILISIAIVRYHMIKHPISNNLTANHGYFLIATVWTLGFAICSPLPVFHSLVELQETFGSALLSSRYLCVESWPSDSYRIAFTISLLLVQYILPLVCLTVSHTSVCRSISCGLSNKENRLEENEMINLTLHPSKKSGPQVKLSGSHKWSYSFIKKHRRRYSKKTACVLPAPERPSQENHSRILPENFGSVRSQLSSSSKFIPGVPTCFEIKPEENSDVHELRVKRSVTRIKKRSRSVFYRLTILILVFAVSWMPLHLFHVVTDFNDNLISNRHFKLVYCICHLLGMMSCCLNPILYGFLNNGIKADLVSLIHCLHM", "assay": "Receptor-binding studies on cell lines expressing NPY Y5 receptor"}, "[5]": {"test_system": "non-POMC neurons in the arcuate nucleus", "assay": "Recordings from non-fluorescent (non-POMC) neurons in the arcuate nucleus", "format": "cell-based, mouse", "conditions": "13 cells tested; hyperpolarized 5, depolarized 3"}},
  "note": "Read-outs that look alike come from different tables or passages of the source.",
  "data": [
    {"molecule": "NC1=N[C@H](O)[C@H]2[C@H]3O[C@]4(O)O[C@@H]([C@@H](O)[C@@]2(N1)[C@@H]4O)[C@]3(O)CO", "note": "[TTX, tetrodotoxin]", "values": [
      {"measurement": "effect on large amplitude IPSCs", "setting": "[1]", "result": "abolished large IPSCs"}
    ]},
    {"molecule": "Ac-LRHYLNLLTRQRY-NH2 (C-terminus assumed) [Y2A, N-acetyl (Leu^28, Leu^31) NPY (24-36)]", "values": [
      {"measurement": "α-MSH release from hypothalamic explants", "setting": "[2]; 45 minutes (FIG. 8e)", "result": "concomitant increase in α-MSH release"},
      {"measurement": "NPY release from hypothalamic explants", "setting": "[2]; 45 minutes (FIG. 8d)", "result": "significantly decreased NPY release"},
      {"measurement": "depolarization of POMC neurons", "setting": "POMC neurons; whole cell, PYY3-36 n=22, Y2A n=9", "result": "8.7±1.8", "unit": "mV"},
      {"measurement": "food intake after PVN injection", "setting": "[3]; 100 fmol-1 nmol, rats fasted 24 hours", "result": "no alteration of food intake"},
      {"measurement": "food intake 2 hour post-injection", "setting": "[3]; PVN, 0.1 nmol, n=8", "result": "8.0 ± 0.6", "unit": "g"},
      {"measurement": "food intake after intra-arcuate injection, dose dependence", "setting": "[4]; 100 fmol-1 nmol", "result": "inhibited food intake"},
      {"measurement": "chow ingested 2 hours post-injection", "setting": "[4]; intra-arcuate, 0.1 μmol, n=8", "result": "6.2 ± 0.5", "unit": "g"},
      {"measurement": "reduction of frequency of IPSCs onto POMC neurons", "setting": "[1]", "result": "44.4±9.3", "unit": "%"}
    ]},
    {"molecule": "Ac-LRHYLNLLTRQRY-NH2 [Y2A, N-acetyl (Leu^28, Leu^31) NPY (24-36)]", "values": [
      {"measurement": "IC50", "setting": "NPY Y2 receptor", "result": "1.3 ± 0.2", "unit": "nM"},
      {"measurement": "IC50", "setting": "NPY Y1 receptor", "result": "> 5000", "unit": "nM"},
      {"measurement": "IC50", "setting": "NPY Y5 receptor", "result": "> 5000", "unit": "nM"}
    ]},
    {"molecule": "CTAP", "values": [
      {"measurement": "effect on the current induced by Met-Enk in POMC cells", "setting": "POMC neurons", "result": "completely prevented the current induced by Met-Enk"}
    ]},
    {"molecule": "D-Trp^8-γMSH", "values": [
      {"measurement": "frequency of action potentials", "setting": "POMC neurons; 7 nM", "result": "decreased the frequency of action potentials"}
    ]},
    {"molecule": "NPY", "values": [
      {"measurement": "IPSCs in the presence of tetrodotoxin (TTX)", "setting": "[1]", "result": "still inhibited IPSCs"},
      {"measurement": "decrease of frequency of GABAergic IPSCs", "setting": "[1]", "result": 55, "unit": "%"},
      {"measurement": "time to decrease of IPSC frequency", "setting": "[1]; 100 nM", "result": "≤ 3", "unit": "min"}
    ]},
    {"molecule": "met-enkephalin", "values": [
      {"measurement": "spontaneous action potential generation", "setting": "POMC neurons; 30 μM", "result": "prevented spontaneous action potential generation"},
      {"measurement": "time to hyperpolarization (rapid)", "setting": "POMC neurons; 30 μM", "result": "35 to 40", "unit": "s"},
      {"measurement": "reversal-potential of the inwardly-rectifying opioid current", "setting": "POMC neurons; 6.5 mM K+ Krebs, n=3", "result": "approximately −60 mV"}
    ]},
    {"molecule": "picrotoxin", "values": [
      {"measurement": "effect on IPSCs", "setting": "[1]; 100 μM", "result": "blocked all IPSCs"}
    ]},
    {"molecule": "leptin: leptin applied to identified POMC cells in slice preparations (protein, UniProt P41160 22-167, looked up) Leptin: VPIQKVQDDTKTLIKTIVTRINDISHTQSVSAKQRVTGLDFIPGLHPILSLSKMDQTLAVYQQVLTSLPSQNVLQIANDLENLRDLLHLLAFSKSCSLPQTSGLQKPESLDGVLEASLYSTEVVALSRLQGSLQDILQQLDVSPEC", "values": [
      {"measurement": "reversal of the small inward current", "setting": "POMC neurons; 100 nM", "result": "approximately −20 mV"},
      {"measurement": "mean±SEM depolarization", "setting": "POMC neurons; 100 nM, n=45", "result": "9.7±1.2", "unit": "mV"},
      {"measurement": "time to depolarization", "setting": "POMC neurons; 0.1-100 nM", "result": "2 to 10", "unit": "min"},
      {"measurement": "depolarization of POMC cells", "setting": "POMC neurons; 0.1-100 nM, 72 of 77 cells", "result": "3-30 mV"},
      {"measurement": "EC50", "setting": "POMC neurons; read-out: EC50 of concentration dependent depolarization of POMC cells", "result": 5.9, "unit": "nM"},
      {"measurement": "effect on adjacent non-fluorescent ARC cells", "setting": "[5]", "result": "no effect on 5 of 13 adjacent non-fluorescent cells tested"},
      {"measurement": "IPSCs in the presence of tetrodotoxin (TTX)", "setting": "[1]", "result": "still inhibited IPSCs"},
      {"measurement": "decrease of frequency of GABAergic IPSCs", "setting": "[1]; 100 nM (leptin: 5 out of 15 cells; NPY: all 12 cells)", "result": 25, "unit": "%"}
    ]}
  ]
}
